Measurements from patent US5424309A, “N-substituted acylamino acid compounds, process for their production and their use” (Banyu Pharmaceutical Co., Ltd., priority 1988, dated 1995).

How the values were obtained:
human plasma renin = molecular target: T1, human plasma renin (Homo sapiens, UniProt P00797); experiment: Renin inhibiting activities (human plasma, angiotensin I by radio immunoassay); assay type: biochemical; conditions: pH7.4, 37° C., one hour, read-out: IC50 (50 % inhibition concentrations), renin inhibiting activity
T1 construct: from tissue; host or cells: human plasma
T1 sequence (P00797 67-406): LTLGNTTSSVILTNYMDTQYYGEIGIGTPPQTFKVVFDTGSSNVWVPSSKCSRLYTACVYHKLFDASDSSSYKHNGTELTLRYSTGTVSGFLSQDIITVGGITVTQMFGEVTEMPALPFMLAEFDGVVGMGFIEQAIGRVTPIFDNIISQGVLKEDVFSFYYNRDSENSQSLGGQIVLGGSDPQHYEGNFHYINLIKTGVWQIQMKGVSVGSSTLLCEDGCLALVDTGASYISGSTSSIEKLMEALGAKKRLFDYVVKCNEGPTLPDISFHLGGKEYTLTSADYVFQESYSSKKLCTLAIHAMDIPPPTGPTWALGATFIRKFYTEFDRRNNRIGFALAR
Experimental: To 156 μl of a 0.2M sodium phosphate buffer solution (pH7.4), 40 μl of a solution mixture of 34 mM 8-hydroxyquinoline and 100 mM disodium ethylenediamine tetraacetate, 4 μl of dimethyl sulfoxide or a dimethyl sulfoxide solution of test compound and 200 μl of human plasma were added and reacted at 37° C. for one hour. Then, pepstatin was added thereto to terminate the reaction, and the amount of the resulting angiotension I was measured by radio immunoassay whereby the inhibiting activity was determined.

marmosets = experiment: Hypotensive activities in monkeys (furosemide-treated marmosets, oral administration); assay type: in vivo; conditions: 30 mg/kg orally; three marmosets; furosemide 30 mg/kg pretreatment (high renin active state); FIG. 1
Experimental: The hypotensive activities were measured in accordance with a method disclosed in J. Cardiovascular Pharmacology, Vol. 7, (Suppl. 4) S58-61 (1985). Namely, 30 mg/kg of furosemide (diuretic) was intracutaneously injected to three marmosets i.e. small size monkeys to produce a high renin active state. To these marmosets, 30 mg/kg of the compound of Example 1 was orally administered, whereupon the hypotensive activities were measured.

| Structure (SMILES) | IC50 (human plasma renin) | hypotensive activities (marmosets) |
| --- | --- | --- |
| CCCC[C@H](NC(=O)[C@H](Cc1cccc2ccccc12)C[S+]([O-])CC(COC(C)=O)OC(C)=O)C(=O)N[C@@H](CC1CCCCC1)[C@@H](O)[C@@H](O)CN1CCOCC1 (mixture of isomers) [Example 6 (having a low Rf value), (2S,3R,4S)-4-{L-N-[(2S)-3-[(2RS)-2,3-diacetoxypropyl]sulfinyl-2-(1-naphthylmethyl)propionyl]norleucyl}amino-5-cyclohexyl-1-morpholino-2,3-pentanediol] | 4.1 nM |  |
| CCCC[C@H](NC(=O)[C@@H](CSC1CCC(OC(C)=O)C1)Cc1cccc2ccccc12)C(=O)N[C@@H](CC1CCCCC1)[C@@H](O)[C@@H](O)CN1CCOCC1 (stereo partly drawn) [Example 34, (2S,3R,4S)-4-{L-N-[(2S)-3-(3-acetoxycyclopentyl)thio-2-(1-naphthylmethyl)propionyl]norleucyl}amino-5-cyclohexyl-1-morpholino-2,3-pentanediol] | 5.6 nM |  |
| CCCC[C@H](NC(=O)[C@H](Cc1ccccc1)CS(=O)(=O)CC(COC(C)=O)OC(C)=O)C(=O)N[C@@H](CC1CCCCC1)[C@@H](O)[C@@H](O)CN1CCOCC1 (mixture of isomers) [Example 15, (2S,3R,4S)-4-{L-N-[(2S)-3-[(2RS)-2,3-diacetoxypropyl]sulfonyl-2-benzylpropionyl]norleucyl}amino-5-cyclohexyl-1-morpholino-2,3-pentanediol] | 7.3 nM |  |
| CCCC[C@H](NC(=O)[C@H](Cc1cccc2ccccc12)CS(=O)(=O)CC(COC(=O)CC)OC)C(=O)N[C@@H](CC1CCCCC1)[C@@H](O)[C@@H](O)CN1CCOCC1 (mixture of isomers) [Example 14, (2S,3R,4S)-4-{L-N-[(2S)-3-[(2RS)-2-methoxy-3-propionyloxypropyl]sulfonyl-2-(1-naphthylmethyl)propionyl]norleucyl}amino-5-cyclohexyl-1-morpholino-2,3-pentanediol] | 2 nM |  |
| CCCC[C@H](NC(=O)[C@H](Cc1cccc2ccccc12)CS(=O)(=O)CC(COC(C)=O)OCC)C(=O)N[C@@H](CC1CCCCC1)[C@@H](O)[C@@H](O)CN1CCOCC1 (mixture of isomers) [Example 43, (2S,3R,4S)-4-{L-N-[(2S)-3-[(2RS)-3-acetoxy-2-ethoxypropyl]sulfonyl-2-(1-naphthylmethyl)propionyl]norleucyl}amino-5-cyclohexyl-1-morpholino-2,3-pentanediol] | 2.4 nM |  |
| CCCC[C@H](NC(=O)[C@H](Cc1cccc2ccccc12)CS(=O)(=O)CC(COC(=O)CC)OC(C)=O)C(=O)N[C@@H](CC1CCCCC1)[C@@H](O)[C@@H](O)CN1CCOCC1 (mixture of isomers) [Example 13, (2S,3R,4S)-4-{L-N-[(2S)-3-[(2RS)-2-acetoxy-3-propionyloxypropyl]sulfonyl-2-(1-naphthylmethyl)propionyl]norleucyl}amino-5-cyclohexyl-1-morpholino-2,3-pentanediol] | 2 nM |  |
| CCCC[C@H](NC(=O)[C@H](Cc1cccc2ccccc12)CS(=O)(=O)CC(COC(C)=O)OC)C(=O)N[C@@H](CC1CCCCC1)[C@@H](O)[C@@H](O)CN1CCOCC1 (single isomer, unassigned) [Example 40] | 1 nM |  |
| CCCC[C@H](NC(=O)[C@H](Cc1cccc2ccccc12)CS(=O)(=O)CC(COC(=O)CC)OC(=O)CC)C(=O)N[C@@H](CC1CCCCC1)[C@@H](O)[C@@H](O)CN1CCOCC1 (mixture of isomers) [Example 8, (2S,3R,4S)-4-{L-N-[(2S)-3-[(2RS)-2,3-dipropionyloxypropyl]sulfonyl,-2-(1-naphthylmethyl)propionyl]norleucyl}amino-5-cyclohexyl-1-morpholino-2,3-pentanediol] | 3.3 nM |  |
| CCCC[C@H](NC(=O)[C@H](Cc1cccc2ccccc12)CS(=O)(=O)CC(O)COC(C)=O)C(=O)N[C@@H](CC1CCCCC1)[C@@H](O)[C@@H](O)CN1CCOCC1 (some centres unmarked) [Example 11] | 6.3 nM |  |
| CCCC[C@H](NC(=O)[C@H](Cc1cccc2ccccc12)CS(=O)(=O)CCOC(=O)OCC)C(=O)N[C@@H](CC1CCCCC1)[C@@H](O)[C@@H](O)CN1CCOCC1 [Example 5, (2S,3R,4S)-4-{L-N-[(2S)-3-(2-ethoxycarbonyloxyethyl)sulfonyl-2-(1-naphthylmethyl)propionyl]norleucyl}amino-5-cyclohexyl-1-morpholino-2,3-pentanediol] | 5 nM |  |
| CCCC[C@H](NC(=O)[C@H](Cc1cccc2ccccc12)C[S+]([O-])c1ccc(OC(C)=O)cc1)C(=O)N[C@@H](CC1CCCCC1)[C@@H](O)[C@@H](O)CN1CCOCC1 (single isomer, unassigned) [Example 20 (having a low Rf value)] | 4 nM |  |
| CCCC[C@H](NC(=O)[C@@H](CSCC(COC(C)=O)OC)Cc1cccc2ccccc12)C(=O)N[C@@H](CC1CCCCC1)[C@@H](O)[C@@H](O)CN1CCOCC1 (mixture of isomers) [Example 27, (2S,3R,4S)-4-{L-N-[(2S)-3-[(2RS)-3-acetoxy-2-methoxypropyl]thio-2-(1-naphthylmethyl)propionyl]norleucyl}amino-5-cyclohexyl-1-morpholino-2,3-pentanediol] | 2.2 nM |  |
| CCCC[C@H](NC(=O)[C@H](Cc1cccc2ccccc12)CS(=O)(=O)CC(COC(C)=O)OC(C)=O)C(=O)N[C@@H](CC1CCCCC1)[C@@H](O)[C@@H](O)CN1CCOCC1 (mixture of isomers) [Example 1, (2S, 3R, 4S)-4-{L-N-[(2S)-3-[(2RS)-2,3-diacetoxypropyl]sulfonyl-2-(1-naphthylmethyl)propionyl]norleucyl}amino-5-cyclohexyl-1-morpholino-2,3-pentanediol] | 2.5 nM | exhibits hypotensive activities by the oral administration |
